The values that follow come from publication PMC7481290, “Halogenation as a tool to tune antimicrobial activity of peptoids” (Scientific Reports, 2020).

SMILES strings stand for the structures. Converted amounts (≈) assume the structure as drawn. Non-standard residues stand in square brackets, D forms with d. Residues, ends and D or L forms follow the SMILES beside them. NBzl(4-I)Gly = O=C(O)CNCc1ccc(I)cc1; Nspe = C[C@H](NCC(=O)O)c1ccccc1; Nlys = NCCCCNCC(=O)O Some results are limits rather than exact numbers.

Data set [1] concerns selected bacterial strains (S. aureus, S. epidermidis, E. coli, P. aeruginosa). It counts as cell-based. The protocol:
All 36 peptoids were tested against seven bacterial strains: five Gram-positive (Staphylococcus aureus ATCC 25923 and ATCC 29213, methicillin-resistant Staphylococcus aureus USA 300, methicillin-resistant Staphylococcus epidermidis ET-024 and ATCC 51625) and two Gram-negative (Escherichia coli ATCC 25922, Pseudomonas aeruginosa PA01) (Table 1).
Bacterial growth inhibition was determined by using broth microdilution according to the Clinical Laboratory Standards Institute[43]. The antibacterial activity of peptoids was tested against S. aureus ATCC 25923, ATCC29213, and methicillin resistant S. aureus USA 300, methicillin resistant S. epidermidis ATCC 51625, a biofilm producing methicillin resistant S. epidermidis ET-024[44], P. aeruginosa Pa01 (H103), and E. coli ATCC 25922. Bacteria, grown on agar plates for 18 h at 37 °C, were diluted to ∼1 × 10^8 CFU/mL in Mueller‐Hinton Broth II (MHB II). Twofold serial dilutions of peptoids in MHB II were inoculated with bacteria to achieve a final concentration of 5 × 10^5 CFU/mL in polypropylene 96 U‐well microtiter plates (Corning 3,897; ThermoFisher Scientific, Roskilde), followed by incubation at 37 °C in ambient air for 18 h. The MIC values were determined as the lowest concentration showing no visible bacterial growth. Experiments were performed twice (in technical triplicates) on 2 different days.

The subject of data set [2] is Methicillin-resistant S. aureus USA 300. It counts as cell-based, Staphylococcus aureus. The gist of the method: (§1)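 Broth microdilution per CLSI in MHB II, final inoculum 5 × 10^5 CFU/mL, with twofold peptoid dilutions. Incubation was 18 h at 37 °C in ambient air. MIC was taken as the lowest concentration without visible growth, from two experiments on different days in technical triplicate.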

Another data set has as its system S. aureus ATCC 25923. It counts as cell-based, Staphylococcus aureus. The gist of the method: as §1
In a further data set the test system is S. aureus ATCC 29213. The class given is cell-based, Staphylococcus aureus. As to conditions: ATCC 29213, 18 h. The gist of the method:
as §1

The nature of data set [3]: Critical aggregation concentration from SAXS fit analysis. It counts as physicochemical. As to the method: SAXS experiments of the 10-mer peptoids were performed at the automated BM29 bioSAXS beamline at the European Synchrotron Radiation Facility (ESRF) in Grenoble, France[45]. The data was obtained using an energy of 12.5 keV and a detector distance of 2.87 m, covering a q range ( q=4πsin(θ/2)/λ ), where θ is the scattering angle and λ is the X-ray wavelength) of about 0.0047 to 0.5 Å^−1. The data set was calibrated to an absolute intensity scale using water as a primary standard. 40 µL samples were run through a capillary using the flow mode of the automated sample changer. SAXS data was collected in ten successive frames of 0.5 s each to monitor radiation damage and the data reduction was done using the standard tool at BM29[47].
The SAXS experiments on the fully iodinated 6-, 8-, and 12-mers to determine the CAC of the compounds were performed using a Bruker NANOSTAR equipped with a microfocus X-ray source (IμS Cu, Incoatec, Germany) and a VÅNTEC-2000 detector. Raw scattering data was calibrated to absolute intensity scale using water as a primary standard and radially averaged in order to obtain the 1D scattered intensity profile as a function of the scattering vector, with a wavelength of 1.54 Å.
The modelling fit analysis of the scattering data is explained in detail in the supplementary information.

Data set [4] concerns P. aeruginosa PA01 (H103). It counts as cell-based, Pseudomonas aeruginosa. The gist of the method:
as §1

The test system of data set [5] is Methicillin-resistant S. epidermidis ET-024. It counts as cell-based, Staphylococcus epidermidis. The gist of the method:
as §1

Data set [6] relates to Methicillin-resistant S. epidermidis ATCC 51625. It counts as cell-based, Staphylococcus epidermidis. The method in brief: as §1
For another data set, the system named is E. coli ATCC 25922. The class given is cell-based, Escherichia coli. The method in brief: as §1
The next data set has as its system HaCaT cell line. The class given is cell-based, human. As to conditions: 1 h exposure, MTS/PMS assay; interval in brackets. The protocol: An immortalized human keratinocytes (HaCaT) cell line (Gift from David G. Naym at Bispebjerg Hospital) were cultured to ∼90% confluence after 21–25 h of growth at 5% CO2 and 37 °C as previously. In brief, the cells were cultured in Dulbecco’s Modified Eagle’s Medium supplemented with 10% (v/v) fetal bovine serum, penicillin (100 IU/mL), and streptomycin (100 μg/mL), purchased from Sigma-Aldrich (St. Louis, MO, United States).
Cell viability assessment was performed on cell monolayers grown to ∼90% confluence in 96-well plates Corning Costar (Sigma-Aldrich, Brøndby, Denmark) by using the MTS/PMS assay as previously described. Briefly, the adhered cells were washed with 37 °C PBS solution (ThermoFisher Scientific, Roskilde) and exposed for 1 h at 37 °C to 100 μL of peptoids dissolved in the medium also used for culturing of the cell line (at concentrations in the range 0–1,000 μg/mL). The precise exposure-time were selected to enable comparison with related peptoid compounds[21],[35]. […] A plate reader (SpectraMax i3X; Molecular devices, San Jose, CA) was used to measure the absorbance at 492 nm. The relative viability was calculated by using 0.2% (w/v) sodium dodecyl sulfate (SDS) as the positive control, while cells exposed to medium without test compound were used as the negative control. […]

As to `NCCCCNCC(=O)N(CC(=O)N(CCCCN)CC(=O)N(CC(=O)N(CCCCN)CC(=O)N(CC(=O)N(CCCCN)CC(=O)N(CC(=O)N(CCCCN)CC(=O)N(CC(=O)N(CCCCN)CC(=O)N(CC(N)=O)Cc1ccc(I)cc1)Cc1ccc(I)cc1)Cc1ccc(I)cc1)Cc1ccc(I)cc1)Cc1ccc(I)cc1)Cc1ccc(I)cc1` [Compound 32] (H-[Nlys][NBzl(4-I)Gly][Nlys][NBzl(4-I)Gly][Nlys][NBzl(4-I)Gly][Nlys][NBzl(4-I)Gly][Nlys][NBzl(4-I)Gly][Nlys][NBzl(4-I)Gly]-NH2), in data set [1], the “antimicrobial potency against the selected bacterial strains, in words” value is reported as “the activity was lost”. Further, in data set [2] (USA 300, 18 h), the “Minimal inhibitory concentration MRSA^c” value was 32 µg/mL (≈ 13.2 µM). Moreover, the “Minimal inhibitory concentration SA^a” value in the data set on S. aureus ATCC 25923 (ATCC 25923, 18 h) worked out at 64 µg/mL (≈ 26.4 µM). The “Minimal inhibitory concentration SA^b” value with S. aureus ATCC 29213 came out at 128 µg/mL (≈ 52.8 µM). Further, the “critical aggregation concentration (CAC)” value in data set [3] turned out to be 0.4 mg/mL. In data set [4] (H103, 18 h), the “Minimal inhibitory concentration PA^g” value was over 512 µg/mL. For the same compound, the “Minimal inhibitory concentration MRSE^d” value in [5] (Methicillin-resistant ET-024, 18 h) worked out at 32 µg/mL (≈ 13.2 µM). Besides, the “Minimal inhibitory concentration MRSE^e” value in data set [6] (ATCC 51625, 18 h) was 16 µg/mL (≈ 6.6 µM). The “Minimal inhibitory concentration EC^f” value with E. coli ATCC 25922 (ATCC 25922, 18 h) is over 512 µg/mL.
Regarding `C[C@@H](c1ccccc1)N(CC(N)=O)C(=O)CN(C(=O)CN(CCCCN)C(=O)CN(C(=O)CN(C(=O)CN(CCCCN)C(=O)CN(C(=O)CN(C(=O)CN(CCCCN)C(=O)CN(C(=O)CN(C(=O)CNCCCCN)[C@@H](C)c1ccccc1)[C@@H](C)c1ccccc1)[C@@H](C)c1ccccc1)[C@@H](C)c1ccccc1)[C@@H](C)c1ccccc1)[C@@H](C)c1ccccc1)[C@@H](C)c1ccccc1` [Peptoid 1, reference compound] (H-[Nlys][Nspe][Nspe][Nlys][Nspe][Nspe][Nlys][Nspe][Nspe][Nlys][Nspe][Nspe]-NH2), the “MIC MRSA^b” value in data set [2] (Table 2, MRSA USA 300) was found to be 8 µg/mL (≈ 4.4 µM). The “MIC SA^a” value with S. aureus ATCC 25923 (Table 2, S. aureus ATCC 25923) is 8 µg/mL (≈ 4.4 µM). Also, in data set [4] (Table 2, P. aeruginosa PA01 H103), the “MIC PA^f” value came to 16 µg/mL (≈ 8.79 µM). The “IC50 towards HaCaT cell line” value in the data set on HaCaT cell line was 35.0 (30.9 to 39.9) μg/mL. Further, the “MIC MRSE^c” value in [5] (Table 2, MRSE ET-024) worked out at 4 µg/mL (≈ 2.2 µM). Further, in data set [6] (Table 2, MRSE ATCC 51625), the “MIC MRSE^d” value amounted to 8 µg/mL (≈ 4.4 µM). The “MIC EC^e” value with E. coli ATCC 25922 (Table 2, E. coli ATCC 25922) was 8 µg/mL (≈ 4.4 µM).
